Data published in US12195427B2, “MASP-2 inhibitors and methods of use” (priority 2018, dated 2025).

What was measured:
Lectin Pathway = Lectin Pathway Activation Assay in Human Serum (mannan-coated ELISA, C3c detection); assay type: biochemical; details: 1% human serum
Protocol: Microtiter ELISA plate was coated with mannan from Saccharomyces cerevisiae (Sigma-Aldrich, M7504) for overnight at 4° C. in coating buffer [15 mM Na2CO3, 35 mM NaHCO3].

MASP-2 CCP2-SP = MASP-2 CCP2-SP (Homo sapiens (Human), UniProt O00187); assay: MASP-2 co-crystallization, X-ray crystallography and structure analysis (H-bonds, van der Waals contacts); set-up: van der Waals contact distance, MASP-2 HIS 483 atom CD2 / van der Waals contact distance, MASP-2 HIS 483 atom NE2 / van der Waals contact distance, SER 654 C to compound atom / van der Waals contact distance, SER 654 O to compound atom / van der Waals contact distance, TRP 655 C to compound atom / van der Waals contact distance, MASP-2 GLY 528 atom CA / van der Waals contact distance TRP 655 atom CZ3 / van der Waals contact distance TRP 655 atom N / van der Waals contact distance TRP 655 atom CE3 / van der Waals contact distance GLY 656 atom C / van der Waals contact distance GLY 656 atom CA / van der Waals contact distance GLY 656 atom O / van der Waals contact distance, MASP-2 TYR 607 atom CD1 / van der Waals contact distance, MASP-2 PRO 606 atom O / d(C3,CA1) / d(CA1,N1)2 / d(H4,O1) / d(H4,O2) / d(O1,O2) / d(CA1,O2) / d(CA6,O1) / d(CA6,O2) / d(CA1,C5) / d(O2,H3) / d(N2,C2) / d(CA5,N2) / d(N2,C4) / d(N2,C6) / d(N2,CA3) / d(N2,O3) / d(O4,H2): unit not given beside the values; details: for H-bond distance to MASP-2 GLY 656 atom N: GLY 656 N; for H-bond distance to MASP-2 GLY 656 atom O: GLY 656 O; for H-bond distance to MASP-2 SER 654 atom O: SER 654 O; for van der Waals contact distance TRP 655 atom CE3: MASP-2 TRP 655 CE3, compound atom in line below; for van der Waals contact distance TRP 655 atom CZ3: MASP-2 TRP 655 CZ3; for Ligand-pharmacophore element distance, pharmacophore element C2 / Ligand-pharmacophore element distance, pharmacophore element C3 / Ligand-pharmacophore element distance, pharmacophore element C4 / Ligand-pharmacophore element distance, pharmacophore element C5 / Ligand-pharmacophore element distance, pharmacophore element C6 / Ligand-pharmacophore element distance, pharmacophore element C7 / Ligand-pharmacophore element distance, pharmacophore element CA1 / Ligand-pharmacophore element distance, pharmacophore element CA2 / Ligand-pharmacophore element distance, pharmacophore element CA3 / Ligand-pharmacophore element distance, pharmacophore element CA4 / Ligand-pharmacophore element distance, pharmacophore element CA5 / Ligand-pharmacophore element distance, pharmacophore element CA6: Table A4-1; for d(N2,CA2) / d(O2,H3) / d(O2,N2): Table A5-2 pharmacophore distance, S3/S4 region; for a(O1, O2, H3) / a(O1, O2, N2) / a(O2, N2, CA2): Table A6-2 pharmacophore angle;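 on Ligand-pharmacophore element distance, pharmacophore element C2: distance from averaged pharmacophore element to bound ligand; missing value means element absent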;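 on Ligand-pharmacophore element distance, pharmacophore element C3: distance from averaged pharmacophore element to bound ligand; missing value means element absent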;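 on Ligand-pharmacophore element distance, pharmacophore element C4: distance from averaged pharmacophore element to bound ligand; missing value means element absent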;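 on Ligand-pharmacophore element distance, pharmacophore element C5: distance from averaged pharmacophore element to bound ligand; missing value means element absent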
In short: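 E. coli-expressed CCP2-SP (±6His); apo crystals soaked 1–2× in inhibitor-containing crystallization solution; optional 20% glycerol cryoprotection, LN2 flash-cool; synchrotron data at 1.0 wavelength; MR using 1Q3X portions, partial refinement; single pose analysed when several seen.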

[1] = Table A5-1 pharmacophore: distance between elements, S2/S1 region
[2] = Table A7-1, between pharmacophore elements of the bound compound
[3] = Table A7-2, between pharmacophore elements of the bound compound

Chain of MASP-2 CCP2-SP (O00187 445-686): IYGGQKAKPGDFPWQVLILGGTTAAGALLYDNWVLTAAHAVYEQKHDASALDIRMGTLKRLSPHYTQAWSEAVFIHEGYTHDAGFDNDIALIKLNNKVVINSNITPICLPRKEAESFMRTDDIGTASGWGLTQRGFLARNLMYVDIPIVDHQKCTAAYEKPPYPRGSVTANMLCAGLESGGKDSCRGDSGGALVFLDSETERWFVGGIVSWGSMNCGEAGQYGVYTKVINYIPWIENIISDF
Chain of MASP-2 CCP2-SP (O00187 364-432 partner): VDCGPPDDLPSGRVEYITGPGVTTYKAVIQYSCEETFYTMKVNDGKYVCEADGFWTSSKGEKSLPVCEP

## Cc1nc(N)ccc1CNC(=O)[C@H](C)NC(=O)[C@H]1C[C@H](Cc2ccc3ccccc3c2)CN1 [compound 1338, (2R,4S)—N—((S)-1-(((6-Amino-2-methylpyridin-3-yl)methyl)amino)-1-oxopropan-2-yl)-4-(naphthalen-2-ylmethyl)pyrrolidine-2-carboxamide]
Lectin Pathway
  IC50: 0.05 to 0.5 µM
MASP-2 CCP2-SP; Table A1 (H-Bonds), ASP 627 OD2
  H-bond distance to MASP-2 ASP 627 atom OD2: 3.2
MASP-2 CCP2-SP; Table A1 (H-Bonds)
  H-bond distance to MASP-2 GLY 656 atom N: 3.23
  H-bond distance to MASP-2 GLY 656 atom O: 2.78
  H-bond distance to MASP-2 SER 654 atom O: 2.99
MASP-2 CCP2-SP; Table A1 (H-Bonds), SER 628 O
  H-bond distance to MASP-2 SER 628 atom O: 3.04
MASP-2 CCP2-SP; Table A1 (H-Bonds), SER 657 O
  H-bond distance to MASP-2 SER 657 atom O: 2.93
MASP-2 CCP2-SP; Table A2-1
  van der Waals contact distance, MASP-2 HIS 483 atom CD2: 3.58
  van der Waals contact distance, MASP-2 HIS 483 atom NE2: 3.82
MASP-2 CCP2-SP; Table A2-2
  van der Waals contact distance, MASP-2 ALA 527 atom C: 3.67
MASP-2 CCP2-SP; Table A2-3
  van der Waals contact distance, MASP-2 PHE 529 atom CE2: 3.86
MASP-2 CCP2-SP; Table A2-9, ARG 630, AA atoms CG, CZ
  van der Waals contact distance, MASP-2 amino acid atom to compound atom: 3.75
MASP-2 CCP2-SP; Table A2-11
  van der Waals contact distance, VAL 653 CG1 to compound atom: 3.33
MASP-2 CCP2-SP; Table A2-12
  van der Waals contact distance, TRP 655 CA to compound atom: 3.4
MASP-2 CCP2-SP; Table A2-13
  van der Waals contact distance TRP 655 atom CE3: 3.83
  van der Waals contact distance TRP 655 atom CZ3: 3.74
MASP-2 CCP2-SP; Table A2-13, MASP-2 TRP 655 N
  van der Waals contact distance TRP 655 atom N: 3.9
MASP-2 CCP2-SP
  Ligand-pharmacophore element distance, pharmacophore element C2: 0
  Ligand-pharmacophore element distance, pharmacophore element C3: 0.12
  Ligand-pharmacophore element distance, pharmacophore element C4: 0
  Ligand-pharmacophore element distance, pharmacophore element C5: 0
  Ligand-pharmacophore element distance, pharmacophore element C6: 0
  Ligand-pharmacophore element distance, pharmacophore element C7: 0
  Ligand-pharmacophore element distance, pharmacophore element CA1: 0.55
  Ligand-pharmacophore element distance, pharmacophore element CA2: 0.59
  Ligand-pharmacophore element distance, pharmacophore element CA3: 0
  Ligand-pharmacophore element distance, pharmacophore element CA4: 1.21
  Ligand-pharmacophore element distance, pharmacophore element CA5: 0
  Ligand-pharmacophore element distance, pharmacophore element CA6: 0
  d(N2,CA2): 6.05
  d(O2,H3): 4.29
  d(O2,N2): 2.74
  a(O1, O2, H3): 148.03
  a(O1, O2, N2): 141.48
  a(O2, N2, CA2): 157.11
MASP-2 CCP2-SP; [1]
  d(C3,CA1): 2.88
  d(CA1,N1)2: 1.37
  d(CA1,O1): 4.35
  d(CA1,O2): 3.80
  d(H4,O1): 4.33
  d(H4,O2): 3.75
  d(O1,O2): 3.35
MASP-2 CCP2-SP; Table A6-1 pharmacophore angle
  a(C3, CA1, O1): 148.99
  a(CA1, O1, O2): 105.30
  a(O1, O2, H4): 131.78
MASP-2 CCP2-SP; Table A6-1 pharmacophore angle, Methyl-amino-pyridine compounds
  a(N1, CA1, O1) b): 173.72
MASP-2 CCP2-SP; [2]
  Pharmacophore torsion angle a(C3, CA1, O1, H4): 23.02
  Pharmacophore torsion angle a(H4, O1, O2, H3): 52.11
  Pharmacophore torsion angle a(H4, O1, O2, N2): 140.39
  Pharmacophore torsion angle a(N1, CA1, O1, H4): −3.32
  Pharmacophore torsion angle a(O1, H4, O2, CA1): −85.13
MASP-2 CCP2-SP; [3]
  Pharmacophore torsion angle a(O1, O2, N2, CA2): 124.64
  Pharmacophore torsion angle a(O1, O2, N2, CA4): 116.54

## Cc1cc(Cl)cc(CNC(=O)[C@H](C)NC(=O)[C@H]2C[C@H](Cc3ccccc3)CN2)c1O [compound 1307, (2R,4S)-4-Benzyl-N—((S)-1-((5-chloro-2-hydroxy-3-methylbenzyl)amino)-1-oxopropan-2-yl)pyrrolidine-2-carboxamide]
Lectin Pathway
  IC50: 0.05 to 0.5 µM
MASP-2 CCP2-SP; Table A1 (H-Bonds)
  H-bond distance to MASP-2 GLY 656 atom N: 2.95
  H-bond distance to MASP-2 GLY 656 atom O: 2.86
  H-bond distance to MASP-2 SER 654 atom O: 2.91
MASP-2 CCP2-SP; Table A2-1
  van der Waals contact distance, MASP-2 HIS 483 atom NE2: 3.5
MASP-2 CCP2-SP; Table A2-2
  van der Waals contact distance, MASP-2 GLY 528 atom CA: 3.75
MASP-2 CCP2-SP; Table A2-3
  van der Waals contact distance, MASP-2 PHE 529 atom CD2: 3.69
  van der Waals contact distance, MASP-2 PHE 529 atom CZ: 3.86
MASP-2 CCP2-SP; Table A2-4
  van der Waals contact distance, MASP-2 TYR 607 atom CD1: 3.83
MASP-2 CCP2-SP; Table A2-11
  van der Waals contact distance, SER 654 C to compound atom: 3.79
  van der Waals contact distance, VAL 653 CG1 to compound atom: 3.47
MASP-2 CCP2-SP; Table A2-13
  van der Waals contact distance TRP 655 atom CE3: 3.75
  van der Waals contact distance TRP 655 atom CZ3: 3.76
MASP-2 CCP2-SP
  Ligand-pharmacophore element distance, pharmacophore element C2: 0
  Ligand-pharmacophore element distance, pharmacophore element C3: 0
  Ligand-pharmacophore element distance, pharmacophore element C4: 0
  Ligand-pharmacophore element distance, pharmacophore element C5: 0.37
  Ligand-pharmacophore element distance, pharmacophore element C6: 0
  Ligand-pharmacophore element distance, pharmacophore element C7: 0.76
  Ligand-pharmacophore element distance, pharmacophore element CA1: 1.55
  Ligand-pharmacophore element distance, pharmacophore element CA2: 0.17
  Ligand-pharmacophore element distance, pharmacophore element CA3: 0
  Ligand-pharmacophore element distance, pharmacophore element CA4: 0
  Ligand-pharmacophore element distance, pharmacophore element CA5: 0
  Ligand-pharmacophore element distance, pharmacophore element CA6: 0
  d(N2,CA2): 6.14
  d(O2,H3): 2.09
  d(O2,N2): 2.81
  a(O1, O2, H3): 129.22
  a(O1, O2, N2): 142.81
  a(O2, N2, CA2): 155.37
MASP-2 CCP2-SP; [1]
  d(CA1,C5): 3.13
  d(CA1,O1): 4.60
  d(CA1,O2): 4.57
  d(CA1,O4): 2.74
  d(H4,O1): 3.15
  d(H4,O2): 3.80
  d(O1,O2): 3.17
  d(O4,H2): 0.98
MASP-2 CCP2-SP; Table A6-1 pharmacophore angle
  a(C5, CA1, O1): 161.35
  a(CA1, O1, O2): 109.57
  a(CA1, O4, H2): 127.11
  a(O1, CA1, C7): 121.00
  a(O1, CA1, O4): 66.49
  a(O1, O2, H4): 126.83
MASP-2 CCP2-SP; [2]
  Pharmacophore torsion angle a(C5, CA1, O1, H4): −6.78
  Pharmacophore torsion angle a(C7, CA1, O1, H4): −161.01
  Pharmacophore torsion angle a(H4, O1, O2, H3): −163.22
  Pharmacophore torsion angle a(H4, O1, O2, N2): −170.13
  Pharmacophore torsion angle a(O1, H4, O2, CA1): −88.47
MASP-2 CCP2-SP; [3]
  Pharmacophore torsion angle a(O1, O2, N2, CA2): 138.35
